Test results from ChEMBL document CHEMBL5465560, “Selectivity Literature for EUbOPEN Chemogenomic Library” (2024).

Columns and labels:
[1] = molecular target: Serine/threonine-protein kinase PAK 6 (Homo sapiens) (UniProt Q9NQU5); test: Selectivity interaction (ProQinase) EUB0000171b PAK6
[2] = molecular target: Macrophage colony-stimulating factor 1 receptor (Homo sapiens) (UniProt P07333); test: Selectivity interaction (KinaseProfiler screening (Millipore)) EUB0000601a CSF1R; details: at 3 µM
[3] = molecular target: Bromodomain-containing protein 8 (Homo sapiens) (UniProt Q9H0E9); test: Selectivity interaction (Bromodomain panel (DSF asssay)) EUB0000270b BRD8
Sequence of Bromodomain-containing protein 8 (Homo sapiens) (Q9H0E9 whole entry): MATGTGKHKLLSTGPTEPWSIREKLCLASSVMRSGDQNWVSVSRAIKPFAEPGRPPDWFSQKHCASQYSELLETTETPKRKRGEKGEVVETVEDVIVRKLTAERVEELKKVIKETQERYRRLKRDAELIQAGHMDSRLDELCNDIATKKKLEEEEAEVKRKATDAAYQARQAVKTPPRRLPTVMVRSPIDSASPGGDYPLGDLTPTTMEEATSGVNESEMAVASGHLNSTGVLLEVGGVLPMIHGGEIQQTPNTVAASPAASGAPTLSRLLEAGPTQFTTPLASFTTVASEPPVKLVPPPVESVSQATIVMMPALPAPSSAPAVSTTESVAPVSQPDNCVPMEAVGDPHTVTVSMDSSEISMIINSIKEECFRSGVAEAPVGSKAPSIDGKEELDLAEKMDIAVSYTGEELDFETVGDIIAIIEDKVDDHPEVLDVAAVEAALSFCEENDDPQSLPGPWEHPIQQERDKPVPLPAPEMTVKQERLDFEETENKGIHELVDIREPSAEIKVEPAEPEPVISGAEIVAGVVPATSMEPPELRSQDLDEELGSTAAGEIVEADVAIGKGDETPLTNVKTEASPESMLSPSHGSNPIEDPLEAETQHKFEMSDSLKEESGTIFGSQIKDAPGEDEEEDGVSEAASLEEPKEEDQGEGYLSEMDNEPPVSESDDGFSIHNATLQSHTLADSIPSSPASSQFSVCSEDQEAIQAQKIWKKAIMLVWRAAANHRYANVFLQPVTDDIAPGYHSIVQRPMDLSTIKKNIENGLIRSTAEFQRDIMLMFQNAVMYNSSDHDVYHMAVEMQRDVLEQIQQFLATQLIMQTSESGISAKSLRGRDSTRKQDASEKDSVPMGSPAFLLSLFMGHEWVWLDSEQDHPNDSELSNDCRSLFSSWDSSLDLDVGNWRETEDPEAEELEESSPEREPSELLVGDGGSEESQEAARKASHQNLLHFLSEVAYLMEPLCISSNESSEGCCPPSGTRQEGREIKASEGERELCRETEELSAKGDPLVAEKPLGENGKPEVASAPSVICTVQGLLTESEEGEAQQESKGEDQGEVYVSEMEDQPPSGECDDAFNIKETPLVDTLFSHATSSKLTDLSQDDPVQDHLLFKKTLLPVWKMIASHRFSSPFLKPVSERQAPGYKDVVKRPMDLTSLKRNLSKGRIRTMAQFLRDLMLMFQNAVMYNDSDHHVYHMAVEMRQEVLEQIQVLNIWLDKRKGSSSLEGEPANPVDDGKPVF

[4] = molecular target: Calcium/calmodulin-dependent protein kinase type II subunit beta (Homo sapiens) (UniProt Q13554); test: Selectivity interaction (ActivX KiNativ screen (kinase selectivity in THP-1 cell lysates)) EUB0000639a CAMK2B; type: subcellular; details: lysate, at 5 µM
[5] = molecular target: Epidermal growth factor receptor (Homo sapiens, UniProt P00533); test: Selectivity interaction (Kinase panel (Invitrogen)) EUB0000639a EGFR; details: at 200 nM
[6] = molecular target: Serine/threonine-protein kinase MARK2 (Homo sapiens) (UniProt Q7KZI7); test: Selectivity interaction (ActivX KiNativ screen (kinase selectivity in THP-1 cell lysates)) EUB0000639a MARK2; type: subcellular; details: lysate, at 0.2 µM
[7] = molecular target: Serine/threonine-protein kinase PRP4 homolog (Homo sapiens) (UniProt Q13523); test: Selectivity interaction (ActivX KiNativ screen (kinase selectivity in THP-1 cell lysates)) EUB0000639a PRPF4; type: subcellular; details: lysate, at 0.04 µM
Sequence of Serine/threonine-protein kinase PRP4 homolog (Homo sapiens) (Q13523 whole entry): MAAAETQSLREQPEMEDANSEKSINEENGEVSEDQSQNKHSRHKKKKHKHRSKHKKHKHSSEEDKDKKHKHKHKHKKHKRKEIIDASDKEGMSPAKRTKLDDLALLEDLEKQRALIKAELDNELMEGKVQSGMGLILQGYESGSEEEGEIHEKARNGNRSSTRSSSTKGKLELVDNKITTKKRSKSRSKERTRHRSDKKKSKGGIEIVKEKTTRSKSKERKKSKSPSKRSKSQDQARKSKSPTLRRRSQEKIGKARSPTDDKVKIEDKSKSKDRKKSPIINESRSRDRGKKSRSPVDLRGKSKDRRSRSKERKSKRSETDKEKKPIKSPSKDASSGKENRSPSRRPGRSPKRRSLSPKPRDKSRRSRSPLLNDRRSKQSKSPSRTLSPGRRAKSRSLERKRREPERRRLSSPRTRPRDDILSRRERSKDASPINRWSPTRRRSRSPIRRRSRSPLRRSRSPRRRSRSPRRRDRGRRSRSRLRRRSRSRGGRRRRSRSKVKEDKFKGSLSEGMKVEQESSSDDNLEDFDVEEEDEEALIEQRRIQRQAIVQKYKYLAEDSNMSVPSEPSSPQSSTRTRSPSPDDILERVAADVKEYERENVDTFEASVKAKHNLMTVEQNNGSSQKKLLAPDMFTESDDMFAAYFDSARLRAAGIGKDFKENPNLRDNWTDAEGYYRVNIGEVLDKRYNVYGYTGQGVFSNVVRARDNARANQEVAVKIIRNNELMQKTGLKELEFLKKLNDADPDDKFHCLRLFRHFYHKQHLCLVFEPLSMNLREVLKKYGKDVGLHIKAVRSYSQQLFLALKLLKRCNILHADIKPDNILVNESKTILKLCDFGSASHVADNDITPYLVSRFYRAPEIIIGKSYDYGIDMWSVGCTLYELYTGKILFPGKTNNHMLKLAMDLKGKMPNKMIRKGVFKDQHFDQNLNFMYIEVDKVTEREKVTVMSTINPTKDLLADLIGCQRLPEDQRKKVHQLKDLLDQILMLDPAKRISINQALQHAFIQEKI

[8] = molecular target: T1, Hormonally up-regulated neu tumor-associated kinase (Homo sapiens) (UniProt P57058); test: Selectivity interaction (KinomeScan (DiscoverX)) EUB0001049a HUNK; details: at 1 µM
T1 sequence (whole entry): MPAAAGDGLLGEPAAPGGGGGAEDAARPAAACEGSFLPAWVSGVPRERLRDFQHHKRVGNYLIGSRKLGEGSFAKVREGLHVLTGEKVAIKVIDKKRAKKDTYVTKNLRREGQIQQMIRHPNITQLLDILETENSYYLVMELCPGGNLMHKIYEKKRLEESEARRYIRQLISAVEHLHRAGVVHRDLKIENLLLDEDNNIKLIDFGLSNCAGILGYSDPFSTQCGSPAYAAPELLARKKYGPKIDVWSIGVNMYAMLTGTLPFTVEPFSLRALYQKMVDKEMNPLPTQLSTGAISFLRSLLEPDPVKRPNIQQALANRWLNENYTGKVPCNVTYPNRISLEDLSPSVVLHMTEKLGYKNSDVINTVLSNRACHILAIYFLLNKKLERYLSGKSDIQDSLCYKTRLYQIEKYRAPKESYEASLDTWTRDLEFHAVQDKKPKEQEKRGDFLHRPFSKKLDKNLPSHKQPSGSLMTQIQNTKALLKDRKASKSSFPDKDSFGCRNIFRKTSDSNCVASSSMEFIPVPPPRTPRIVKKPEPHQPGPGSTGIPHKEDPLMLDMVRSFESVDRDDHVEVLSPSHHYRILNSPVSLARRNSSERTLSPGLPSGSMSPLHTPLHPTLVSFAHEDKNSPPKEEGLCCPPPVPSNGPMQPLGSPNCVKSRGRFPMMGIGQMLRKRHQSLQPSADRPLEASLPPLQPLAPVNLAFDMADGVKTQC

[9] = molecular target: Mast/stem cell growth factor receptor Kit (Homo sapiens, UniProt P10721); test: Selectivity interaction (KinomeScan (DiscoverX)) EUB0001049a KIT; details: at 1 µM
[10] = molecular target: Serine/threonine-protein kinase SIK3 (Homo sapiens) (UniProt Q9Y2K2); test: Selectivity interaction (KinomeScan (DiscoverX)) EUB0001049a SIK3; details: at 1 µM
[11] = molecular target: Serine/threonine-protein kinase N1 (Homo sapiens, UniProt Q16512); test: Selectivity interaction (KinomeScan (DiscoverX)) EUB0000595a PKN1; details: at 10 µM
[12] = molecular target: Serine/threonine-protein kinase 26 (Homo sapiens, UniProt Q9P289); test: Selectivity interaction (KinomeScan (DiscoverX)) EUB0000045b STK26
Sequence of Serine/threonine-protein kinase 26 (Q9P289 2-416 limits assumed): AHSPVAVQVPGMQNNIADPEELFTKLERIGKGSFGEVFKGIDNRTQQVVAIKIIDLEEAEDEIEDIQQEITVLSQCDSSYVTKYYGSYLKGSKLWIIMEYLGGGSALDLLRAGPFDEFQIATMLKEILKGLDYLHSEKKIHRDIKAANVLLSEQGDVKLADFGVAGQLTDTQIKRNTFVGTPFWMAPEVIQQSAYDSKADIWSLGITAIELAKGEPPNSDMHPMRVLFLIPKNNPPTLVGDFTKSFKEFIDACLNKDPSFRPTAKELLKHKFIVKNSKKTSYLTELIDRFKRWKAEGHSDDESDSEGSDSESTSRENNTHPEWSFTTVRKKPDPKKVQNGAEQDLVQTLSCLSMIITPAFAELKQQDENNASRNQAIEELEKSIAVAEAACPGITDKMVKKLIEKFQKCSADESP

[13] = molecular target: Serine/threonine-protein kinase pim-1 (Homo sapiens, UniProt P11309); test: Selectivity interaction (KinomeScan (DiscoverX)) EUB0000045b PIM1
Sequence of Serine/threonine-protein kinase pim-1 (P11309 whole entry, looked up): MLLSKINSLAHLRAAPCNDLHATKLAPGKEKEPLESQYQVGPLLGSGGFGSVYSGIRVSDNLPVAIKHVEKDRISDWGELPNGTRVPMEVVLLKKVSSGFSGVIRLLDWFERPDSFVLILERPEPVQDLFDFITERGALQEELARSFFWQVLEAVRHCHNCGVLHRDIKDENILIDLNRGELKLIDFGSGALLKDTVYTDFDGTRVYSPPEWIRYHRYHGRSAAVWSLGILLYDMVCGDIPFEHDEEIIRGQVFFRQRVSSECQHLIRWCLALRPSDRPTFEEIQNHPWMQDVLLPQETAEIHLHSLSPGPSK

[14] = molecular target: Mitogen-activated protein kinase 8 (Homo sapiens, UniProt P45983); test: Selectivity interaction (Enzymatic assay) EUB0001199aCl MAPK8
Sequence of Mitogen-activated protein kinase 8 (P45983 whole entry): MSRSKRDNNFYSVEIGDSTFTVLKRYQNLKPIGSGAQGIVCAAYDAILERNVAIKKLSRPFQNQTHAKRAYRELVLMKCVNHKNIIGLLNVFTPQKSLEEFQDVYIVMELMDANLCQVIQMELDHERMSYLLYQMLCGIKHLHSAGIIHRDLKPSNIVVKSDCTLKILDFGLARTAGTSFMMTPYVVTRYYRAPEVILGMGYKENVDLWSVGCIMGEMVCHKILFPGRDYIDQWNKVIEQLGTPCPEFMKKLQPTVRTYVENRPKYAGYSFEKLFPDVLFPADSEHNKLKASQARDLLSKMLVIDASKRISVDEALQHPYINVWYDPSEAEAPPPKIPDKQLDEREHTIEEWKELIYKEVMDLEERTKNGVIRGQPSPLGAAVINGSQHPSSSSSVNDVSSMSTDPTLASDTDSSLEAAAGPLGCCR

[15] = molecular target: T2, MAP kinase-activated protein kinase 5 (Homo sapiens) (UniProt Q8IW41); test: Selectivity interaction (Kinase panel (Eurofins)) EUB0001564a MAPKAPK5; details: at 1 µM
T2 sequence (whole entry): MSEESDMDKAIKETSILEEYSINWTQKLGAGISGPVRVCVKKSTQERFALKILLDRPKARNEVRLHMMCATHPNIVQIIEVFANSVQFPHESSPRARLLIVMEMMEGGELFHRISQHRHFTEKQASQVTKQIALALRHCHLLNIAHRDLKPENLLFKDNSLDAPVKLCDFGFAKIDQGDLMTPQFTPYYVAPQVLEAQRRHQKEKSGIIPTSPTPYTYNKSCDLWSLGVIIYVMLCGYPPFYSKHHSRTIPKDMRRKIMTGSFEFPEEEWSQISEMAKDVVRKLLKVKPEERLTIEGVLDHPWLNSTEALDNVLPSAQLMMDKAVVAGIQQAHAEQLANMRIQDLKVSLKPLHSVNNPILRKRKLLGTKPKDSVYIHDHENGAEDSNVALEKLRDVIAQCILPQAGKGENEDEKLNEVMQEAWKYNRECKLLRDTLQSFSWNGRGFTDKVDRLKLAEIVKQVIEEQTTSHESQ

[16] = molecular target: T3, Histone-lysine N-methyltransferase SMYD3 (Homo sapiens) (UniProt Q9H7B4); details: at 10 µM
T3 sequence (whole entry): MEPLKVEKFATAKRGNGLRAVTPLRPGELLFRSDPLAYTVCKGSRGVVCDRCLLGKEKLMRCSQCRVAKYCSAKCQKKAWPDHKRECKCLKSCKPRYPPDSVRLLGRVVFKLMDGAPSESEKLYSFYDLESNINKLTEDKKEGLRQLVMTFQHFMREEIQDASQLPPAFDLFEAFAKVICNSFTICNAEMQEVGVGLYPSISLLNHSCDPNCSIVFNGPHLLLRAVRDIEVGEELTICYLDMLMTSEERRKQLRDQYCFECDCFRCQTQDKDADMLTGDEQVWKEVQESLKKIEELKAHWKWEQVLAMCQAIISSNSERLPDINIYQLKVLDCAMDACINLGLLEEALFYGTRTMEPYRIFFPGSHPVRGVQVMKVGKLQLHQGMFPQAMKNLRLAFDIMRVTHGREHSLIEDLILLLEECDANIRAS

[17] = molecular target: Tyrosine-protein kinase Fyn (Homo sapiens) (UniProt P06241); test: Selectivity interaction (ActivX KiNativ screen (ex vivo kinase selectivity in human PBMCs)) EUB0001619a FYN; type: cell-based; details: PBMC, at 1 µM
Sequence of Tyrosine-protein kinase Fyn (Homo sapiens) (P06241 2-537 limits assumed): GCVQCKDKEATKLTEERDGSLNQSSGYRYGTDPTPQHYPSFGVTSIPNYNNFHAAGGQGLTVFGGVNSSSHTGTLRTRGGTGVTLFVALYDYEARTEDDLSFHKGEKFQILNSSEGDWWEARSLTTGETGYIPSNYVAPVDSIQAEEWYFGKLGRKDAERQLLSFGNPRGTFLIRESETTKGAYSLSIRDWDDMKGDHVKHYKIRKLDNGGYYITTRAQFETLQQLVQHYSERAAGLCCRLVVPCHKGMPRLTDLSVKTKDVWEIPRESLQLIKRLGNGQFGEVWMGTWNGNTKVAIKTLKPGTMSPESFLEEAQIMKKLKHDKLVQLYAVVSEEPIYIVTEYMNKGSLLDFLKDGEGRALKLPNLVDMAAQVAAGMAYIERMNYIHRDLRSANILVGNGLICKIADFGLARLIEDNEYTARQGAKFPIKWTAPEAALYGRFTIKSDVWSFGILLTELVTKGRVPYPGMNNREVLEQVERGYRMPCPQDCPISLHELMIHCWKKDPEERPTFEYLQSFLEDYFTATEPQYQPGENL

Sequence of Serine/threonine-protein kinase PAK 6 (Homo sapiens) (Q9NQU5 whole entry, looked up): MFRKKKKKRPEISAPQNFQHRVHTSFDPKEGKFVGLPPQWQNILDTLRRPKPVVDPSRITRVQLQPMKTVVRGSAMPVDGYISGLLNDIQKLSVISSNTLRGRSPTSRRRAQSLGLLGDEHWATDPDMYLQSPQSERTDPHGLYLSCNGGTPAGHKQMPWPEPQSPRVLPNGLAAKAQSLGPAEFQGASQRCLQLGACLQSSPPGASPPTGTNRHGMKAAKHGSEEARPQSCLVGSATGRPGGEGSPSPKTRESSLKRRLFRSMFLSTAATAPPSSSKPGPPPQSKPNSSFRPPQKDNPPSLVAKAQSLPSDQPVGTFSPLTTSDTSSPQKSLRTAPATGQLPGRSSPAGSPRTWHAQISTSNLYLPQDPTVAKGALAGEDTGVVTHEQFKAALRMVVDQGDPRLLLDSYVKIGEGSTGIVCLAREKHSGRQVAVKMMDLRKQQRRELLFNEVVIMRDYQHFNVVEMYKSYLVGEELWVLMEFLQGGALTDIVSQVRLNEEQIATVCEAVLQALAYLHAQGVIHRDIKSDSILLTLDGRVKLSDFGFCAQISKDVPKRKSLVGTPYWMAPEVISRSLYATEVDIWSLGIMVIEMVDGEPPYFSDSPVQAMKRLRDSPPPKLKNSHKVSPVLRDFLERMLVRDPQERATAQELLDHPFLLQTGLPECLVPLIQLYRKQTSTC

## C=CC(=O)Nc1cccc(C(=O)Nc2ccc(Nc3cc(-c4[nH]c(SC)nc4C)ccn3)cc2)c1
[1]; at 1 µM
  % of control: 92%
[1]; at 5 µM
  % of control: 76%

## CCc1cc(Nc2nccc(-c3c(-c4ccc(OC)c(C(=O)Nc5c(F)cccc5F)c4)nc4ccccn34)n2)c(OC)cc1N1CCC(N2CCN(S(C)(=O)=O)CC2)CC1
[2]
  % of inhibition: 50%

## Cc1cc(CN)cc(C)c1-c1ncn(C)c1-c1cncn1C
[3]
  dTM: -1.17 K

## CC[C@@H]1[C@H](F)C(=O)N[C@@H]1COc1nccc2cc(C(N)=O)c(OC)cc12 [ZIMLOVISERTIB]
[4]
  % of inhibition: 19.6%
[5]
  % of inhibition: 1.25%
[6]
  % of inhibition: 8.4%
[7]
  % of inhibition: 4.1%

## COc1cc(Nc2nc(C)cc(-c3cnn4nc(OC)ccc34)n2)cc(C(F)(F)F)c1
[8]
  % of control: 99%
[9]
  % of control: 75%
[10]
  % of control: 82%

## COCC(=O)NC/C=C/c1ccc2ncnc(Nc3ccc(Oc4ccc(C)nc4)c(C)c3)c2c1 [CP-724714]
[11]
  % of control: 100%

## C=CC(=O)Nc1cc(-n2c(=O)ccc3cnc4ccc(-c5ccc(NS(C)(=O)=O)cc5)cc4c32)ccc1C
[12]; at 1 µM
  % of control: 100%
[12]; at 10 µM
  % of control: 90%
[13]; at 1 µM
  % of control: 100%
[13]; at 10 µM
  % of control: 86%

## CN1Cc2nccc(-c3cn(C)nc3-c3ccc(F)cc3)c2C1=O
[14]
  IC50: 1020 nM

## CC[C@@H](Nc1c(C#N)c(-c2ccc(-c3cccc(C)c3F)cc2)nc2cnccc12)C(=O)O [BAY-091]
[15]
  % of inhibition: 23.6%

## CNCCN1CCC(c2cc(CN(C)C(=O)c3cccc(Oc4ccccc4)c3)ccn2)CC1
[16]
  % activity: > 90%

## N#Cc1cccc(-c2c[nH]c3ncnc(N4CCOCC4)c23)c1
[17]
  % of inhibition: -9%
